Measured values as given in the NIST ThermoML archive (doi:10.1007/s10765-013-1539-3).

Test: wn = mass fraction of the nth substance listed
Settings: Gas, Steady Flow

[C-]#[O+] [carbon monoxide] + [HH]
binary diffusion coefficient [m2/s], w2 = 0.5
Settings | 250 K | 300 K | 350 K | 400 K | 500 K | 600 K | 700 K | 800 K | 900 K
100 kPa | 5.6e-05 | 7.7e-05 | 0.000101 | 0.000127 | 0.000188 | 0.000258 | 0.000337 | 0.000425 | 0.000522
4000 kPa | 1.32e-05 | 1.96e-05 | 2.58e-05 | 3.28e-05 | 4.84e-05 | 6.6e-05 | 8.7e-05 | 0.000109 | 0.000134
7000 kPa | 8e-06 | 1.16e-05 | 1.52e-05 | 1.96e-05 | 2.89e-05 | 3.97e-05 | 5.14e-05 | 6.5e-05 | 7.9e-05
10000 kPa | 5.6e-06 | 8.1e-06 | 1.09e-05 | 1.38e-05 | 2.03e-05 | 2.79e-05 | 3.63e-05 | 4.55e-05 | 5.58e-05
15000 kPa | 4e-06 | 5.6e-06 | 7.4e-06 | 9.4e-06 | 1.42e-05 | 1.96e-05 | 2.63e-05 | 3.35e-05 | 4.2e-05

[HH] [hydrogen] + N#N
binary diffusion coefficient [m2/s], w1 = 0.5
Settings | 250 K | 300 K | 350 K | 400 K | 500 K | 600 K | 700 K | 800 K | 900 K
100 kPa | 5.86e-05 | 8e-05 | 0.000104 | 0.000131 | 0.000192 | 0.000261 | 0.00034 | 0.000427 | 0.000523
4000 kPa | 1.52e-05 | 2.04e-05 | 2.68e-05 | 3.37e-05 | 4.95e-05 | 6.8e-05 | 8.8e-05 | 0.00011 | 0.000134
7000 kPa | 8.8e-06 | 1.24e-05 | 1.63e-05 | 2.05e-05 | 3.01e-05 | 4.1e-05 | 5.32e-05 | 6.65e-05 | 8.11e-05
10000 kPa | 6e-06 | 8.5e-06 | 1.13e-05 | 1.41e-05 | 2.07e-05 | 2.82e-05 | 3.65e-05 | 4.56e-05 | 5.55e-05
15000 kPa | 4.21e-06 | 6e-06 | 7.9e-06 | 9.8e-06 | 1.45e-05 | 1.96e-05 | 2.51e-05 | 3.15e-05 | 3.8e-05
